The text below walks through data of PMC8880385 (Pharmaceuticals, 2022).

Structures are written as SMILES. “And” between values parts separate entries of the source, which are not always exact repeats. Identical values can stand only once. “Also recorded” adds a separate entry of the source.

Series [1] has as its system O. volvulus pre-adult L5. Briefly: O. volvulus pre-adult (Ov L5) motility assay. It is filed as cell-based, Onchocerca volvulus. Particulars: for inhibition at 1 µM: Onchocerca volvulus. Here is the method: O. volvulus adult male and female worms, which can only be obtained from infected individuals, are not readily accessible for ex vivo studies. Moreover, since there is no small animal model that can maintain infections by O. volvulus, a recently developed in vitro system was used to evaluate the macrofilaricidal effects on pre-adult worms. All compounds except for 04 were tested in this O. volvulus pre-adult/L5 motility and viability assay.
(§1) Briefly, Ov L3 larvae were cultured to the pre-adult/L5 stage in vitro as described by Voronin et al., 2019 [45]. Once larvae reached the L5 stage (after at least 70 days in culture), 8–10 Ov L5 were moved to new transwell inserts in a 24-well plate containing 0.5 mL Ov L4-CMS media seeded with a 3 × 10^4/well Human Umbilical Vein Endothelial Cells (HUVEC) monolayer. Duplicate wells were treated with 1 and/or 10 µM of compound. Ov L5 were exposed to compounds for 14 days (exchanged 50% of media with fresh compound every two days) and then cultured with new media without compound, exchanging 50% of media every 2–3 days, up to day 36. Control Ov L5 were treated with 0.05% DMSO. Concentrations were chosen based on activity in the B. pahangi female motility assay. Motility was assessed visually and ranked on a 0–100% scale every 2–3 days over the course of the assay. At the end of the motility assay, Ov L5 viability was measured by 3-(4,5-dimethylthiazol-2-yl)-2,5-diphenyltetrazolium bromide (MTT) assay. Ov L5 were incubated with 0.1% MTT in PBS at 37 °C for 1 h then visually inspected for blue coloration indicating MTT reduction. Worms were considered dead if <50% of the worm was stained blue, and worms were considered alive if >50% of the worm was stained blue.

Another series relates to O. ochengi adult males. Put plainly: O. ochengi adult male motility assay. The series is classed as cell-based. Particulars: Onchocerca ochengi, 120 h; read-out: O. ochengi Adult Males Inhibition of Motility Day 5 IC50. An excerpt: (§2) As humans are the only hosts for O. volvulus which are unavailable for screening, drug discovery relies on the surrogate filarial parasites Brugia spp. and cattle Onchocerca spp. Prioritized compounds from the Brugia worm screens were further tested with female and male adult O. ochengi as well as O. ochengi and L. loa mf.
(§3) For these assays, O. ochengi adults were extracted from the subcutaneous nodules of infected cow skins purchased from the local slaughterhouse (Douala, Littoral Region, Cameroon) and incubated in 4 mL complete culture media comprised of RPMI-1640 (Sigma-Aldrich), 5% newborn calf serum, 200 units/mL penicillin, 200 μg/mL streptomycin and 2.5 μg/mL amphotericin B (Sigma-Aldrich) in 12-well plates overnight to validate sterility prior to the assays. Four to eight O. ochengi adult masses were treated individually the following day with a serial dilution of each compound, and controls were treated with 1% DMSO. While in culture, the male worms normally egress from the nodules into the surrounding media and thus can be monitored in parallel for motility. The O. ochengi adult masses were incubated at 37 °C with 5% CO2 for the duration of the assay. Male motility within each well was visually scored every day and over 5 days after compound addition, and female viability within the nodules was assessed by MTT after 7 days as previously described. The O. ochengi adult masses containing female worms were individually placed in wells of a 48-well plate with 0.5 mL of 0.5 mg/mL MTT in PBS and incubated at 37 °C for 30 min. Female viability was visually rated by the degree of formazan production (live worms have blue coloration) in the female worm within the treated nodule versus control worm masses. […] Prism 4.0 for Windows was used to calculate IC50s.

The test system of another series is O. ochengi mf. Put plainly: O. ochengi microfilariae motility assay. It is filed as cell-based, Onchocerca ochengi. As for the experimental part:
(§4) To assess the effects of the compounds on O. ochengi mf, the mf were harvested from infected cow skin and cultured (10–15 mf per well) in 100 µL media in 96-well plates with a confluent feeder layer of monkey kidney epithelial cells (MK2) as previously described. […] All compounds were also counter-screened with L. loa mf collected from infected individuals with approval from the University of Buea (IRB approval # 964-19). Mf were separated from blood cells using a Percoll gradient as previously described and set up for assays (10–15 mf per well).

For another series, the system named is Loa loa mf. Briefly: Loa loa microfilariae motility counter-screen. The series is classed as cell-based. As to conditions: for inhibition at 10 µM: Loa loa, 120 h, Day 5. Here is the method:
as §4
In general terms: Counterscreens check selectivity or assay interference.

The subject of the next series is Brugia pahangi. Put plainly: Brugia pahangi/gerbil model of infection: worm and peritoneal mf counts at necropsy. The series is classed as in vivo. Here is the method: Male Mongolian gerbils 50–60 g, 5–7 weeks in age (Meriones unguiculatus, Charles River Laboratories International, Inc., Wilmington, MA, USA) were injected intraperitoneally (IP) with 200 third-larval stage B. pahangi and treated a minimum of 3 months later when larvae developed into adult worms.
Animals were given IP doses of 1 mg/kg once a day for 5 days based on in vivo studies by Jones et al., 2009 [14] and gerbil PK analyses. Compounds are light sensitive and were shielded from light during formulation. Animals were necropsied 13 weeks post-first dose, and peritoneal cavities were washed with 100 mL of PBS to collect adult worms and mf that had been released from female worms. Adult worms were separated by sex, counted, and processed for subsequent analyses. Mf from the peritoneal cavities were quantified by mixing peritoneal wash 9:1 (v/v) with 0.04% methylene blue:water and counted using an inverted microscope.
Worm burden, peritoneal mf counts, overnight mf sheds and qPCR data were analyzed using a Kruskal–Wallis test followed by Dunn’s multiple comparison. To determine significant differences in embryograms, a two-way ANOVA was conducted with a Dunnett’s multiple comparisons test, and significance levels were determined based on comparisons with vehicle treated animals. All statistical analyses were determined using Prism 8 version 8.2.0(272).

Series [2] relates to O. volvulus pre-adult L5. Briefly: O. volvulus pre-adult (Ov L5) motility assay. The series is classed as cell-based. As to conditions: Onchocerca volvulus, 504 h; on Day 21; read-out: O. volvulus L5 Inhibition of Motility IC50.
Series [3] concerns Brugia pahangi adult females. Put plainly: In vitro motility assay with adult female Brugia pahangi (Worminator). As to conditions: for IC50: read-out: Brugia Adult Females Inhibition of Motility Day 3 IC50.
The subject of series [4] is O. volvulus pre-adult L5. Briefly: Ov L5 viability by endpoint MTT assay. The series is classed as cell-based, Onchocerca volvulus. Particulars: 1 µM. As for the experimental part:
as §1, with “Concentrations were chosen based on activity in the B. pahangi female motility assay.” left out
For orientation: Formazan colour is commonly taken as a measure of viable cells.

For a further series, the system named is O. ochengi adult females. Briefly: O. ochengi adult female viability (MTT) assay. It is filed as cell-based. Particulars: Onchocerca ochengi, 168 h; Day 7, MTT; read-out: O. ochengi Adult Females Inhibition of Survival Day 7 IC50.
Source text: as §2
as §3, with “min.” for “min. Female viability was visually rated by the degree of formazan production (live worms have blue coloration) in the female worm within the treated nodule versus control worm masses.”

Series [5] is described as follows: Gerbil liver microsome stability assay. The series is classed as in vitro ADME. As for the experimental part: Microsomal stability was tested using 1 µM of each test compound in a 96-well plate containing 0.5 mg/mL gerbil liver microsomes, 1 mM NADPH and/or UDPGA with alamethicin in a buffer of 100 mM potassium phosphate with 3 mM magnesium chloride at pH 7.4. Verapamil was used as a positive control. Reactions were incubated at 37 °C, and 100% acetonitrile with 0.1% formic acid was added at 0, 15, 30 and 60 min timepoints to stop the reaction. Samples were then separated over a Waters Atlantis T3 dC18 reverse phase HPLC column with 0.1% formic acid in water and 0.1% formic acid in acetonitrile. Samples were analyzed using an AB Sciex API 4000 LC–MS/MS.
Background: Liver microsomes are vesicles of endoplasmic reticulum, rich in cytochrome P450 enzymes.

A short description of the next series: in vitro. As to conditions: dog, MDCK-MDR1. Here is the method:
Permeability assays were conducted using 5 µM of each test compound with digoxin as a control. […] electrical resistance was used to verify the integrity of the MDCK-MDR1 monolayer. After compound addition, plates were incubated at 37 °C with 5% CO2 for 1 h. Samples were analyzed by LC–MS/MS and net flux ratio was calculated using basal-to-apical and apical-to-basal permeability.

Where [6] appears, read: Day 36 @ 1 µM, 14 days drug then washout.
Where [7] appears, read: Onchocerca ochengi, 120 h, Day 5.
[8] abbreviates: gerbil, 1 mg/kg IP once a day for 5 days, necropsy 13 weeks post-first dose, mean (SEM).
Setting [9] is: gerbil, 1 mg/kg IP once a day for 5 days, necropsy 13 weeks post-first dose, mean (SEM), 1 mg/kg.

One may read the inhibition as the relative decrease from the control value, in per cent. For orientation: IC50 means the point on the concentration scale where inhibition reaches its midpoint. Turning to `Cc1cc(/C=C/c2ccc3cc(N(C)C)ccc3[n+]2C)c(C)n1-c1ccccc1` [PVP, pyrvinium pamoate, reference compound], the “Ov L5 fate during assay (in words)” value in the series on O. volvulus pre-adult L5 [1] (1 µM, 14 days drug then washout) is on record as “dead by day 14; also recorded: did not recover”. The inhibition at 1 µM in the series on O. volvulus pre-adult L5 [1] (336 h, Day 14 @ 1 µM) was 100%; in the series on O. volvulus pre-adult L5 [1] (setting [6]), > 90%; in [3] (Brugia pahangi, 72 h, read-out: Brugia Adult Females Inhibition of Motility Day 3 @ 1 µM, 1 µM, Day 3) it was > 70%. Further, the IC50 in the series with O. ochengi adult males is 110 nM; with O. ochengi mf (setting [7]), 300 nM; with O. volvulus pre-adult L5 [2] it was < 300 nM; in series [3] (Brugia pahangi, 72 h) it was 0.3 nM. In the series on O. ochengi mf, the “O. ochengi Mf Inhibition of Motility Day 5 @ 10 µM” value was “completely inhibited”. Further, the inhibition at 10 µM in the series with O. ochengi mf (setting [7]) and in the series on Loa loa mf was 100% throughout. Also, the “Loa loa Mf Inhibition of Motility Day 5 @ 10 µM” value in the series with Loa loa mf was “completely inhibited”. In the series with Brugia pahangi (gerbil, 1 mg/kg IP), the “Total female worms recovered from treated animals” value came out at 1. Also, the “Reduction of peritoneal mf numbers compared to control group” value in the series with Brugia pahangi (gerbil, 1 mg/kg IP once a day for 5 days, 13 weeks post-first dose) is ~ 95%. Besides, the “Reduction of adult worm numbers (worm burden) compared to control group” value in the series with Brugia pahangi (gerbil, 1 mg/kg IP once a day for 5 days, 13 weeks post-first dose, not statistically significant, 1 mg/kg) is ~ 95% and 95%. In addition, the “Female worms per animal” value in the series on Brugia pahangi (setting [8]) is reported as 0.1 (0.1). For the same compound, the “Male worms per animal” value with Brugia pahangi (setting [8]) was 0.7 (0.4). The “Adult worms per animal” value in the series on Brugia pahangi (setting [9]) is 0.9 and 0.9 (0.5). Further, the “Mf per animal (peritoneal cavity)” value in the series on Brugia pahangi (setting [9]) was 10.4 × 10^3 and 10,429. The “Total worms recovered from treated animals” value with Brugia pahangi (n = 7 animals, vehicle total 148 worms (n = 8)) stood at 6 worms. Moreover, in [3], the “Brugia Adult Females Inhibition of Motility Day 3 @ 1 µM” value came to 82%. Moreover, in series [3], the “Brugia Adult Females Inhibition of Motility Day 3 IC50” value is “sub-micromolar range”.
The Papp A→B is the apparent permeability from the apical to the basolateral side of a cell layer. Higher therefore signals ready permeation. Broadly, the Papp B→A is the apparent permeability from the basolateral to the apical side of a cell layer. With `Cc1cc(/C=C/c2ccc3ccccc3[n+]2C)c(C)n1-c1ccccc1.[I-]` [Analog 01, 2-[(E)-2-(2,5-dimethyl-1-phenyl-1H-pyrrol-3-yl)ethenyl]-1-methylquinolin-1-ium iodide], the inhibition at 1 µM in the series with O. volvulus pre-adult L5 [1] (setting [6]) was > 90%. Also, the “O. volvulus L5 % inhibition of viability Day 37 (MTT assay)” value with O. volvulus pre-adult L5 [4] is 87%. In the series with O. ochengi adult males, the IC50 is 960 nM. In addition, in the series with O. ochengi adult females, the IC50 worked out at 790 nM. For the same compound, the “O. ochengi Mf Inhibition of Motility Day 5 @ 10 µM” value in the series on O. ochengi mf is given as “completely inhibited”. The inhibition at 10 µM in the series with O. ochengi mf (setting [7]) worked out at 100%. In the series with Loa loa mf, the “Loa loa Mf Inhibition of Motility Day 5 @ 10 µM” value is on record as “completely inhibited” and testing at 10 µM gave an inhibition of 100%. In addition, the CLint in series [5] (gerbil liver microsomes) amounted to 610.8 µL/min/mg Protein. For the same compound, in [5] (pH 7.4, 1 µM compound, 0.5 mg/mL microsomes, read-out: Gerbil Liver Microsome T1/2), the half-life at 1 µM was 2.3 min. Further, in “in vitro”, the Papp A→B was found to be 0.1 ×10⁻⁶ cm/s and the Papp B→A amounted to 61.3 ×10⁻⁶ cm/s. For the same compound, in series [3], the “Brugia Adult Females Inhibition of Motility Day 3 @ 1 µM” value worked out at 99% and the “Brugia Adult Females Inhibition of Motility Day 3 IC50” value is listed as “sub-micromolar range”. For the same compound, the IC50 in series [3] (Brugia pahangi, 72 h) was determined as 8 nM.
